Assay results reported in PubChem BioAssay (NCI).
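Five concentrations, 48 hours, 96-well plates. The concentration for 50% growth inhibition is given as GI50. Definition used: TGI = concentration required for complete inhibition of growth.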

Assays:
Assay in all cases: inhibition of tumour cell growth, NCI panel, 48 h
[1] = test system: OVCAR-8 ovarian
[2] = test system: ACHN renal
[3] = test system: RXF 393 renal
[4] = test system: SW-620 colon
[5] = test system: TK-10 renal
[6] = test system: SK-MEL-28 melanoma
[7] = test system: SN12C renal
[8] = test system: K-562 leukemia
[9] = test system: U251 CNS
[10] = test system: SF-539 CNS
[11] = test system: UACC-62 melanoma
[12] = test system: T-47D breast
[13] = test system: OVCAR-4 ovarian
[14] = test system: HT29 colon
[15] = test system: HCC-2998 colon
[16] = test system: LOX IMVI melanoma
[17] = test system: KM12 colon
[18] = test system: MOLT-4 leukemia
[19] = test system: SK-MEL-2 melanoma
[20] = test system: MCF7 breast
[21] = test system: MDA-MB-435
[22] = test system: A498 renal
[23] = test system: HS 578T breast
[24] = test system: RPMI-8226 leukemia
[25] = test system: OVCAR-3 ovarian
[26] = test system: CAKI-1 renal
[27] = test system: M14 melanoma
[28] = test system: SF-295 CNS
[29] = test system: NCI-H23 lung
[30] = test system: IGROV1 ovarian
[31] = test system: NCI-H460 lung
[32] = test system: UO-31 renal
[33] = test system: UACC-257 melanoma
[34] = test system: MALME-3M melanoma
[35] = test system: MDA-MB-231 breast
[36] = test system: HCT-15 colon
[37] = test system: OVCAR-5 ovarian
[38] = test system: SK-MEL-5 melanoma
[39] = test system: PC-3 prostate
[40] = test system: HL-60(TB) leukemia
[41] = test system: NCI/ADR-RES ovarian
[42] = test system: SNB-75 CNS
[43] = test system: COLO 205 colon
[44] = test system: SNB-19 CNS
[45] = test system: HCT-116 colon
[46] = test system: SK-OV-3 ovarian
[47] = test system: A549 NSCLC
[48] = test system: CCRF-CEM leukemia
[49] = test system: NCI-H226 lung
[50] = test system: 786-0 renal
[51] = test system: SF-268 CNS
[52] = test system: HOP-62 NSCLC
[53] = test system: EKVX NSCLC

Q: `COc1ccc(CCN2COc3c([C@@H](C)CCC=C(C)C)ccc(C)c3C2)cc1OC` was tested. Which GI50 [1] did it give?
A: 4.21 µM

Q: What about the TGI [1] of the same compound?
A: 20.2 µM

Q: What about the GI50 [2] of the same compound?
A: 6.11 µM

Q: And the TGI [2]?
A: 20.2 µM

Q: And the GI50 [3]?
A: 1.73 µM

Q: What about the TGI [3] of the same compound?
A: 4.85 µM

Q: What about the GI50 [4] of the same compound?
A: 1.91 µM

Q: What about the TGI [4] of the same compound?
A: 4.08 µM

Q: And the GI50 [5]?
A: 2.19 µM

Q: What about the TGI [5] of the same compound?
A: 5.95 µM

Q: And the GI50 [6]?
A: 2.21 µM

Q: And the TGI [6]?
A: 4.94 µM

Q: What about the GI50 [7] of the same compound?
A: 3.27 µM

Q: And the TGI [7]?
A: 13.5 µM

Q: And the GI50 [8]?
A: 3.7 µM

Q: And the TGI [8]?
A: 93.5 µM

Q: What about the GI50 [9] of the same compound?
A: 1.91 µM

Q: And the TGI [9]?
A: 4.47 µM

Q: And the GI50 [10]?
A: 4.48 µM

Q: And the TGI [10]?
A: 15.9 µM

Q: And the GI50 [11]?
A: 3.48 µM

Q: What about the TGI [11] of the same compound?
A: 14.6 µM

Q: And the GI50 [12]?
A: 1.78 µM

Q: And the TGI [12]?
A: 3.8 µM

Q: What about the GI50 [13] of the same compound?
A: 2.99 µM

Q: And the TGI [13]?
A: 16 µM

Q: What about the GI50 [14] of the same compound?
A: 2.2 µM

Q: And the TGI [14]?
A: 5.73 µM

Q: And the GI50 [15]?
A: 1.59 µM

Q: What about the TGI [15] of the same compound?
A: 2.96 µM

Q: And the GI50 [16]?
A: 1.77 µM

Q: And the TGI [16]?
A: 3.75 µM

Q: What about the GI50 [17] of the same compound?
A: 2.86 µM

Q: What about the TGI [17] of the same compound?
A: 9.64 µM

Q: What about the GI50 [18] of the same compound?
A: 3.69 µM

Q: And the TGI [18]?
A: > 100 µM

Q: And the GI50 [19]?
A: 1.88 µM

Q: And the TGI [19]?
A: 3.82 µM

Q: What about the GI50 [20] of the same compound?
A: 3.29 µM

Q: What about the TGI [20] of the same compound?
A: 11 µM

Q: What about the GI50 [21] of the same compound?
A: 3.11 µM

Q: And the TGI [21]?
A: 10.9 µM

Q: What about the GI50 [22] of the same compound?
A: 1.96 µM

Q: And the TGI [22]?
A: 11.9 µM

Q: What about the GI50 [23] of the same compound?
A: 3.94 µM

Q: What about the TGI [23] of the same compound?
A: 17.3 µM

Q: What about the GI50 [24] of the same compound?
A: 2.09 µM

Q: What about the TGI [24] of the same compound?
A: 7.67 µM

Q: What about the GI50 [25] of the same compound?
A: 3.55 µM

Q: What about the TGI [25] of the same compound?
A: 14.1 µM

Q: What about the GI50 [26] of the same compound?
A: 2.73 µM

Q: What about the TGI [26] of the same compound?
A: 12.1 µM

Q: What about the GI50 [27] of the same compound?
A: 1.69 µM

Q: What about the TGI [27] of the same compound?
A: 3.18 µM

Q: What about the GI50 [28] of the same compound?
A: 2.02 µM

Q: What about the TGI [28] of the same compound?
A: 6.56 µM

Q: And the GI50 [29]?
A: 2.55 µM

Q: What about the TGI [29] of the same compound?
A: 6.08 µM

Q: And the GI50 [30]?
A: 1.08 µM

Q: And the TGI [30]?
A: 3.52 µM

Q: What about the GI50 [31] of the same compound?
A: 2.06 µM

Q: What about the TGI [31] of the same compound?
A: 4.3 µM

Q: And the GI50 [32]?
A: 2.45 µM

Q: And the TGI [32]?
A: 12.3 µM

Q: And the GI50 [33]?
A: 2.93 µM

Q: What about the TGI [33] of the same compound?
A: 10.9 µM

Q: What about the GI50 [34] of the same compound?
A: 1.53 µM

Q: What about the TGI [34] of the same compound?
A: 3.18 µM

Q: What about the GI50 [35] of the same compound?
A: 2.76 µM

Q: And the TGI [35]?
A: 9.37 µM

Q: What about the GI50 [36] of the same compound?
A: 2.84 µM

Q: And the TGI [36]?
A: 10.4 µM

Q: And the GI50 [37]?
A: 8.53 µM

Q: And the TGI [37]?
A: 20.8 µM

Q: What about the GI50 [38] of the same compound?
A: 1.64 µM

Q: And the TGI [38]?
A: 3.04 µM

Q: And the GI50 [39]?
A: 1.95 µM

Q: And the TGI [39]?
A: 5.83 µM

Q: And the GI50 [40]?
A: 4.11 µM

Q: What about the TGI [40] of the same compound?
A: 60.9 µM

Q: And the GI50 [41]?
A: 2.96 µM

Q: What about the TGI [41] of the same compound?
A: 9.51 µM

Q: And the GI50 [42]?
A: 12.5 µM

Q: What about the TGI [42] of the same compound?
A: 35.4 µM

Q: What about the GI50 [43] of the same compound?
A: 1.79 µM

Q: What about the TGI [43] of the same compound?
A: 3.19 µM

Q: And the GI50 [44]?
A: 12.1 µM

Q: What about the TGI [44] of the same compound?
A: 42.8 µM

Q: What about the GI50 [45] of the same compound?
A: 2.17 µM

Q: What about the TGI [45] of the same compound?
A: 4.94 µM

Q: And the GI50 [46]?
A: 11.8 µM

Q: What about the TGI [46] of the same compound?
A: 31.1 µM

Q: And the GI50 [47]?
A: 10.3 µM

Q: What about the TGI [47] of the same compound?
A: 31.5 µM

Q: What about the GI50 [48] of the same compound?
A: 3.49 µM

Q: What about the TGI [48] of the same compound?
A: 21.1 µM

Q: And the GI50 [49]?
A: 8.64 µM

Q: And the TGI [49]?
A: 21.6 µM

Q: And the GI50 [50]?
A: 1.98 µM

Q: And the TGI [50]?
A: 4.16 µM

Q: What about the GI50 [51] of the same compound?
A: 1.45 µM

Q: And the TGI [51]?
A: 4.34 µM

Q: And the GI50 [52]?
A: 1.86 µM

Q: What about the TGI [52] of the same compound?
A: 3.62 µM

Q: What about the GI50 [53] of the same compound?
A: 5.14 µM

Q: And the TGI [53]?
A: 25.4 µM
